The values below come from ChEMBL document CHEMBL1149500, “Binding of aminoglycosidic antibiotics to the oligonucleotide A-site model and 30S ribosomal subunit: Poisson-Boltzmann model, thermal denaturation, and fluorescence studies” (J Med Chem, 2006).

In the assay the target is Ribosomal RNA A-site. Briefly: Binding affinity to bacterial ribosomal A site RNA oligonucleotide. Type of assay: nucleic-acid assay.
As for `NC[C@H]1O[C@H](O[C@H]2[C@H](O)[C@@H](O)[C@H](N)C[C@@H]2N)[C@H](N)[C@@H](O)[C@@H]1O` [NEAMINE], the Kd (in general, the equilibrium constant for the complex coming apart) stood at 7.39 µM.
Molecule `CN[C@@H]1[C@H](O)[C@@H](O[C@@H]2[C@@H](O)[C@H](O[C@H]3O[C@H](CN)CC[C@H]3N)[C@@H](N)C[C@H]2N)OC[C@]1(C)O` [GENTAMICIN C] registered a Kd of 5.53 µM.
The same measure for `NC[C@H]1O[C@H](O[C@H]2[C@H](O[C@@H]3O[C@H](CO)[C@@H](O)[C@H]3O)[C@@H](O)[C@H](N)C[C@@H]2N)[C@H](N)[C@@H](O)[C@@H]1O` [RIBOSTAMYCIN]: 16.4 µM.
Next, `CN[C@@H]1[C@@H](O)[C@@H](O[C@@H]2[C@@H](O)[C@H](O[C@H]3O[C@H]([C@@H](C)O)[C@@H](O)[C@H](O)[C@H]3N)[C@@H](N)C[C@H]2N)OC[C@]1(C)O` [GENETICIN]: 14.5 µM.
The same measure for `NC[C@@H]1O[C@H](O[C@H]2[C@@H](O)[C@H](O[C@@H]3[C@@H](O)[C@H](N)C[C@H](N)[C@H]3O[C@H]3O[C@H](CO)[C@@H](O)[C@H](O)[C@H]3N)O[C@@H]2CO)[C@H](N)[C@@H](O)[C@@H]1O` [PAROMOMYCIN]: 0.39 µM.
